# According to patent publication US20050112573A1, “Method of detecting toxic substance” (priority 2001, published 2005):
# Test system: yeast genes (level of expressed mRNA)
# Test: DNA chip analysis of expressed mRNA of yeast genes after 2 h culture with a toxic chemical substance
# Assay type: cell-based, Saccharomyces cerevisiae S288C
# Protocol: Yeast (Saccharomyces cerevtisiae S288C (α SUC2mal mel gap2 CUP1)) were cultured at 25° C. on YPD medium (yeast extract 1%, polypepton 2%, glucose 2%). One of toxic chemical substances was added to the cell at logarithmic growth phase, and the cell was further cultured for two hours. Cell was cultured without any chemical substance in the same condition, and was used as control. Concentrations of the chemical substances were defined to inhibit the growth of the yeast but not lead to death.
# After the completion of cultivation, the culture was centrifuged to collect the cells. To the cells, sodium acetate buffer (50 mM sodium acetate, 10 mM EDTA, 1% SDS) was added, and the mixture was shaken at 65° C. for five minutes, followed by returning to room temperature, and obtaining the supernatant, which procedure was repeated two times. To the supernatant, ½ amount of a solution of phenol/chloroform was added, and the mixture was centrifuged to give a supernatant, which was added with an equal amount of chloroform, and the mixture was centrifuged to give a supernatant. To the supernatant, an equal amount of isopropanol containing 0.3 M sodium acetate was added, and the mixture was allowed to stand at room temperature for 30 minutes, after which the mixture was centrifuged to give a sediment of the whole RNAs. Seventy % ethanol was added to the sediment, and the mixture was again centrifuged to give a sediment, which was then dried and dissolved in water. mRNA was isolated from the whole RNAs as followings. In view of the fact that a poly A chain is attached to the 3′ terminus of mRNA, a polynucleotide having a poly T structure which was immobilized on the surface of latex beads was used to trap the mRNA, and then the mRNA was washed and eluted with spine column (Oligotex-dT30<Super>mRNA Purification Kit, Takara). Reverse transcription of the mRNA was conducted with a reverse transcriptase (Super Script II Reverse Transcriptase; catalogue No. 18064-014, GibcoBRL) using fluorescence-labeled nucleotides to give cDNAs that were introduced with Cy3-dUTP or Cy5-dUTP during the reverse transcription.
# The labeled cDNAs were dissolved in TE buffer (10 mM Tris-HCl/1 mM EDTA, pH8.0), and the solution was dropped on the DNA chip containing the whole genes of yeast (DNA Chip Research Inc. Japan) so that the cDNAs were hybridized on the DNA chip at 65° C. for over 12 hours. The fluoresces intensity of the DNA chip was read with a scanner, and the ratio relative to the fluorescence intensity resulting from the absence of chemical substance was estimated as the following, which is shown in Tables 1 to 9: [formula]
# In the Tables, “Intensity” indicated in the rightmost column is a value of the level of expressed mRNA of each gene in control cells as divided by the average level of the expressions of the whole genes.
smiles,measurement,setting,value
"C[S+](C)[O-] [(15), dimethylsulfoxide]",The level of expressed mRNA in the presence of chemical substance/absence: YGR293C,gene YGR293C,0.7
same,The level of expressed mRNA in the presence of chemical substance/absence: YHL006C,gene YHL006C,0.6
same,The level of expressed mRNA in the presence of chemical substance/absence: YHL021C,gene YHL021C,1.2
same,The level of expressed mRNA in the presence of chemical substance/absence: YHL037C,gene YHL037C,0.8
same,level of expressed mRNA in the presence of chemical substance/in its absence,gene YHR037W,1.1
same,The level of expressed mRNA in the presence of chemical substance/absence: YHR083W,gene YHR083W,1.3
same,level of expressed mRNA in the presence of chemical substance/in its absence,gene YHR092C,0.2
same,The level of expressed mRNA in the presence of chemical substance/absence: YHR095W,gene YHR095W,0.8
same,The level of expressed mRNA in the presence of chemical substance/absence: YHR105W,gene YHR105W,0.9
same,The level of expressed mRNA in the presence of chemical substance/absence: YHR134W,gene YHR134W,1.0
same,level of expressed mRNA in the presence of chemical substance/in its absence,gene YHR137W,2.8
same,The level of expressed mRNA in the presence of chemical substance/absence: YHR180W,gene YHR180W,0.8
same,The level of expressed mRNA in the presence of chemical substance/absence: YHR181W,gene YHR181W,1.4
same,level of expressed mRNA in the presence of chemical substance/in its absence,gene YHR190W,1.3
same,level of expressed mRNA in the presence of chemical substance/in its absence,gene YIL033C,1.0
same,The level of expressed mRNA in the presence of chemical substance/absence: YIL108W,gene YIL108W,1.8
same,The level of expressed mRNA in the presence of chemical substance/absence: YIL127C,gene YIL127C,0.7
same,level of expressed mRNA in the presence of chemical substance/in its absence,gene YIL154C,4.3
same,The level of expressed mRNA in the presence of chemical substance/absence: YIL165C,gene YIL165C,0.8
same,level of expressed mRNA in the presence of chemical substance/in its absence,gene YIL167W,0.6
same,level of expressed mRNA in the presence of chemical substance/in its absence,gene YIR035C,1.4
same,The level of expressed mRNA in the presence of chemical substance/absence: YJL017W,gene YJL017W,1.1
same,The level of expressed mRNA in the presence of chemical substance/absence: YJL032W,gene YJL032W,1.0
same,The level of expressed mRNA in the presence of chemical substance/absence: YJL037W,gene YJL037W,1.6
same,The level of expressed mRNA in the presence of chemical substance/absence: YJL049W,gene YJL049W,0.8
same,level of expressed mRNA in the presence of chemical substance/in its absence,gene YJL088W,5.7
same,The level of expressed mRNA in the presence of chemical substance/absence: YJL097W,gene YJL097W,1.1
same,level of expressed mRNA in the presence of chemical substance/in its absence,gene YJL132W,1.1
same,level of expressed mRNA in the presence of chemical substance/in its absence,gene YJL196C,0.6
same,The level of expressed mRNA in the presence of chemical substance/absence: YJR030C,gene YJR030C,0.8
same,The level of expressed mRNA in the presence of chemical substance/absence: YJR044C,gene YJR044C,1.6
same,level of expressed mRNA in the presence of chemical substance/in its absence,gene YJR142W,0.6
same,level of expressed mRNA in the presence of chemical substance/in its absence,gene YJR148W,3.2
same,level of expressed mRNA in the presence of chemical substance/in its absence,gene YJR159W,2.3
same,The level of expressed mRNA in the presence of chemical substance/absence: YKL051W,gene YKL051W,1.5
same,The level of expressed mRNA in the presence of chemical substance/absence: YKL059C,gene YKL059C,1.1
same,level of expressed mRNA in the presence of chemical substance/in its absence,gene YKL067W,1.1
same,The level of expressed mRNA in the presence of chemical substance/absence: YKL090W,gene YKL090W,0.8
same,The level of expressed mRNA in the presence of chemical substance/absence: YKL094W,gene YKL094W,1.0
same,The level of expressed mRNA in the presence of chemical substance/absence: YKL097C,gene YKL097C,0.8
same,The level of expressed mRNA in the presence of chemical substance/absence: YKL100C,gene YKL100C,1.7
same,level of expressed mRNA in the presence of chemical substance/in its absence,gene YKR039W,1.7
same,The level of expressed mRNA in the presence of chemical substance/absence: YKR040C,gene YKR040C,1.1
same,The level of expressed mRNA in the presence of chemical substance/absence: YLR097C,gene YLR097C,0.9
same,level of expressed mRNA in the presence of chemical substance/in its absence,gene YLR142W,1.6
same,level of expressed mRNA in the presence of chemical substance/in its absence,gene YLR180W,2.5
same,The level of expressed mRNA in the presence of chemical substance/absence: YLR226W,gene YLR226W,1.3
same,level of expressed mRNA in the presence of chemical substance/in its absence,gene YLR273C,2.6
same,level of expressed mRNA in the presence of chemical substance/in its absence,gene YLR300W,2.7
same,level of expressed mRNA in the presence of chemical substance/in its absence,gene YLR307W,3.9
same,The level of expressed mRNA in the presence of chemical substance/absence: YLR338W,gene YLR338W,1.5
same,The level of expressed mRNA in the presence of chemical substance/absence: YLR339C,gene YLR339C,1.0
same,The level of expressed mRNA in the presence of chemical substance/absence: YLR392C,gene YLR392C,0.5
same,The level of expressed mRNA in the presence of chemical substance/absence: YLR415C,gene YLR415C,1.0
same,The level of expressed mRNA in the presence of chemical substance/absence: YLR427W,gene YLR427W,0.8
same,The level of expressed mRNA in the presence of chemical substance/absence: YML013W,gene YML013W,2.2
same,The level of expressed mRNA in the presence of chemical substance/absence: YML029W,gene YML029W,0.8
